One data set has as its target human EphA2 (Homo sapiens, UniProt P29317). Put plainly: SPR (Biacore) binding to immobilized human EphA2. As for the experimental part: Biacore experiments were performed to determine ka (M^−1s^−1), kd (s^−1), KD (nM) values of BCY13272 binding to human EphA2 protein.
EphA2 were biotinylated with EZ-Link™ Sulfo-NHS-LC-Biotin for 1 hour in 4 mM sodium acetate, 100 mM NaCl, pH 5.4 with a 3× molar excess of biotin over protein. The degree of labelling was determined using a Fluorescence Biotin Quantification Kit (Thermo) after dialysis of the reaction mixture into PBS. For analysis of peptide binding, a Biacore T200 instrument was used with a XanTec CMD500D chip. Streptavidin was immobilized on the chip using standard amine-coupling chemistry at 25° C. with HBS-N (10 mM HEPES, 0.15 M NaCl, pH 7.4) as the running buffer. Briefly, the carboxymethyl dextran surface was activated with a 7 min injection of a 1:1 ratio of 0.4 M 1-ethyl-3-(3-dimethylaminopropyl) carbodiimide hydrochloride (EDC)/0.1 M N-hydroxy succinimide (NHS) at a flow rate of 10 μl/min. For capture of streptavidin, the protein was diluted to 0.2 mg/ml in 10 mM sodium acetate (pH 4.5) and captured by injecting 120 μl onto the activated chip surface. Residual activated groups were blocked with a 7 min injection of 1 M ethanolamine (pH 8.5):HBS-N (1:1). Buffer was changed to PBS/0.05% Tween 20 and biotinylated EphA2 was captured to a level of 500-1500 RU using a dilution of protein to 0.2 μM in buffer. […]
On the technique in general: SPR reads the build-up and loss of mass on a sensor chip optically.

Data set [1] addresses T1, CD137 (Homo sapiens, UniProt Q07011). Put plainly: CD137 reporter assay (Promega, Jurkat cells) in co-culture with EphA2-expressing tumor cells (A549, PC3, HT29). Conditions: for EC50: EC50 (nM); for EC50 / Emax: individual replicates. Also noted: host or cells: Jurkat reporter cells. The data set is classed as cell-based. The method, boiled down: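 Readout is Bio-Glo luminescence after 6 h, 37° C co-culture of CD137 reporter Jurkat cells, target tumor cells (EphA2: A549, PC3, HT29; PD-L1: RKO) and titrated test articles in 1% FBS RPMI. EC50 (nM) and maximal induction come from fold change over untreated co-culture.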
For orientation: Reporter assays use an easily measured gene product as a stand-in for the process of interest.

The test system of data set [2] is Nectin-1, Nectin-2, Nectin-3, Nectin-like-1, Nectin-like-2, Nectin-like-3, Nectin-like-4, Nectin-like-5. In words: Nectin-4 paralogue screening by SPR. Conditions: biotinylated targets on streptavidin surface. It is filed as binding. As for the experimental part: Nectin-4 Paralogue screening: Binding of BCY11863 was assessed using SPR against Nectin-1 (2880-N1, R&D Systems), Nectin-2 (2229-N2, R&D Systems), Nectin-3 (3064-N3, R&D Systems), Nectin-like-1 (3678-S4-050, R&D Systems), Nectin-like-2 (3519-S4-050, R&D Systems), Nectin-like-3 (4290-S4-050, R&D Systems), Nectin-like-4 (4164-S4, R&D Systems) and Nectin-like-5 (2530-CD-050, R&D Systems) by labelling them with biotin and immobilizing them on a streptavidin surface.

In data set [3] the target is T1, CD137. Put plainly: CD137 reporter assay (Promega CD137 luciferase reporter, Jurkat cells) in co-culture with Nectin-4-expressing tumor cells. The data set is classed as cell-based. Also noted: host or cells: Jurkat reporter cells. Conditions: for EC50: Arithmetic mean EC50 (nM).

“And” between values parts separate entries of the source, which are not always exact repeats. Identical values can stand only once. Starred links: 1 amine or outer side, 2 acyl side, 3 side chain; linkers in the order of their positions; H or OH if unused. Positions of bridges follow the written chain, without caps; N, C: chain ends. Non-standard residues stand in square brackets, D forms with d. Chains are numbered I, II in the order given. X1 = O=C(CCOCCOCCOCCN(CCOCCOCCOCCn1cc(CCC(=O)[*:2])nn1)CCOCCOCCOCCn1cc(CCC(=O)[*:3])nn1)[*:1]; TATA = O=C(CC[*:1])N1CN(C(=O)CC[*:2])CN(C(=O)CC[*:3])C1; d1Nal = N[C@H](Cc1cccc2ccccc12)C(=O)O; Hyp = O=C(O)[C@@H]1C[C@@H](O)CN1; hArg = N=C(N)NCCCC[C@H](N)C(=O)O; tBuAla = CC(C)(C)C[C@H](N)C(=O)O; Nle = CCCC[C@H](N)C(=O)O

T1 sequence (Q07011 24-255): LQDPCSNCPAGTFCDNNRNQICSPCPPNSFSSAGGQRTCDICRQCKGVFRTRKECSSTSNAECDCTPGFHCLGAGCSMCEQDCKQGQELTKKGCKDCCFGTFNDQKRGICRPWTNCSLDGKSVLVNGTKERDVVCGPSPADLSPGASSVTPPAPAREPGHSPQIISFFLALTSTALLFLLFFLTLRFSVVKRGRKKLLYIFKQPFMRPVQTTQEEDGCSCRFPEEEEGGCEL
human EphA2, sequence (P29317 24-976): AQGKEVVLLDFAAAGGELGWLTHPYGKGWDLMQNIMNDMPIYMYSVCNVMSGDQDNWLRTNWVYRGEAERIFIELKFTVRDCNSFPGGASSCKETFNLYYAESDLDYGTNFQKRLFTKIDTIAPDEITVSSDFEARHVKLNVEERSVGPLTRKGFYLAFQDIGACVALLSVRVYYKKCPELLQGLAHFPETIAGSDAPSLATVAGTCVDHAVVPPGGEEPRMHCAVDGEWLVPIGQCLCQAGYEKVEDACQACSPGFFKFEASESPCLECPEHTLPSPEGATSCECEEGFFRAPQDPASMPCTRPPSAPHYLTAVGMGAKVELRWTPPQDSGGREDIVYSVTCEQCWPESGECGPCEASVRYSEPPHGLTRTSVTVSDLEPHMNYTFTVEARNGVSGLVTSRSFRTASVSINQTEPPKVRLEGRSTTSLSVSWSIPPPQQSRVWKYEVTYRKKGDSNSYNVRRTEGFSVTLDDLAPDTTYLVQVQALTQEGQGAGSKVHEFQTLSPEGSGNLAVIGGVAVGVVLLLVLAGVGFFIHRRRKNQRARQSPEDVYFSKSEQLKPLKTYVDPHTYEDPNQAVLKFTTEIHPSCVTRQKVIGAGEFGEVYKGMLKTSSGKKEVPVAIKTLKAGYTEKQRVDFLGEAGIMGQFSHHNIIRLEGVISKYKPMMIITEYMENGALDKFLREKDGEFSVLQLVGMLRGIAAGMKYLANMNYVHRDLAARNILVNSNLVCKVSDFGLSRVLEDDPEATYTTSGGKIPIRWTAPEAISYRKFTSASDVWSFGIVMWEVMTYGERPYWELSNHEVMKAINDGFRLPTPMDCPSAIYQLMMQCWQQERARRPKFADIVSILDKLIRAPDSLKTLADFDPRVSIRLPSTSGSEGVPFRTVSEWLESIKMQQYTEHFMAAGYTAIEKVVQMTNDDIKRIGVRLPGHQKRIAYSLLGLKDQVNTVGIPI

As usually defined, the Kd is a measure of binding affinity in units of concentration. Lower therefore signals tighter binding. The term EC50 denotes the concentration giving half of the maximal effect. Take “I: A[hArg]DC[Hyp]LVNPLCLEP[d1Nal]WTC-NH2 / II: Ac-C[tBuAla]PE[dK]PYCFADPY[Nle]CA-NH2 / III: Ac-C[tBuAla]PE[dK]PYCFADPY[Nle]CA-NH2 (linker I:4-I:11-I:18, II:1-II:8-II:15, III:1-III:8-III:15 via TATA; linker I:N-II:5-III:5 via X1) [BCY13272]”: on human EphA2, the Kd turned out to be 2 nM. Moreover, the EC50 on CD137 [1] (co-culture with HT-29) was 0.567 nM and 0.187 nM and 0.205 nM; at CD137 [1] (co-culture with PC-3), 0.0805 nM and 0.0898 nM and 0.245 nM. Moreover, the “CD137 activation in CD137 reporter assay” value on CD137 [1] (FIG. 16, PC3, A549 and HT29) is recorded as “induces strong CD137 activation”. Besides, the Emax at CD137 [1] (co-culture with A549) is 25.7 fold and 23.6 fold and 30.2 fold; on CD137 [1] (co-culture with HT-29), 36.5 fold and 26 fold and 36.4 fold; on CD137 [1] (co-culture with PC-3) it was 44.2 fold and 53 fold and 44.5 fold.

`CCCC[C@@H]1NC(=O)[C@H](Cc2ccc(O)cc2)NC(=O)[C@@H]2CCCN2C(=O)[C@H](CC(=O)O)NC(=O)[C@H](C)NC(=O)[C@H](Cc2ccccc2)NC(=O)[C@@H]2CSCCC(=O)N3CN(CN(C3)C(=O)CCSC[C@@H](C(=O)N[C@@H](C)C(N)=O)NC1=O)C(=O)CCSC[C@H](NC(C)=O)C(=O)N[C@@H](CC(C)(C)C)C(=O)N1CCC[C@H]1C(=O)N[C@@H](CCC(=O)O)C(=O)N[C@H](CCCCNC(=O)CCc1cn(CCOCCOCCOCCN(CCOCCOCCOCCC(=O)N[C@H]3CSCCC(=O)N4CN5CN(C4)C(=O)CCSC[C@H](NC(=O)[C@@H](CC(=O)O)NC(=O)[C@H](Cc4cccc6ccccc46)NC(=O)[C@@H]4CCCN4C3=O)C(=O)N[C@@H](CCSC)C(=O)N[C@@H](CCCCNC(=N)N)C(=O)N[C@@H](CC(=O)O)C(=O)N[C@@H](Cc3c[nH]c4ccccc34)C(=O)N[C@@H](CO)C(=O)N[C@@H]([C@@H](C)O)C(=O)N3CCC[C@H]3C(=O)N3C[C@H](O)C[C@H]3C(=O)N[C@@H](Cc3c[nH]c4ccccc34)C(=O)N[C@H](C(N)=O)CSCCC5=O)CCOCCOCCOCCn3cc(CCC(=O)NCCCC[C@H]4NC(=O)[C@H](CCC(=O)O)NC(=O)[C@@H]5CCCN5C(=O)[C@H](CC(C)(C)C)NC(=O)[C@@H](NC(C)=O)CSCCC(=O)N5CN6CN(C5)C(=O)CCSC[C@H](NC(=O)[C@H](Cc5ccc(O)cc5)NC(=O)[C@@H]5CCCN5C4=O)C(=O)N[C@@H](Cc4ccccc4)C(=O)N[C@@H](C)C(=O)N[C@@H](CC(=O)O)C(=O)N4CCC[C@H]4C(=O)N[C@@H](Cc4ccc(O)cc4)C(=O)N[C@@H](CCCC)C(=O)N[C@H](C(=O)N[C@@H](C)C(N)=O)CSCCC6=O)nn3)nn1)C(=O)N1CCC[C@H]1C(=O)N[C@@H](Cc1ccc(O)cc1)C(=O)N2` [BCY11863]: the “binding to Nectin-4 paralogues: concentration up to which no binding was shown” value in data set [2] is over 5000 nM. The EC50 at CD137 [3] (co-culture with CT26#7 (mouse)) was 0.14 ± 0.07 nM; at CD137 [3] (co-culture with HT1376 (human), Table 1B), 0.52 ± 0.3 nM; at CD137 [3] (co-culture with MC38#13 (mouse)) it was 0.31 ± 0.26 nM; at CD137 [3] (co-culture with MDA-MB-468 (human)), 0.23 ± 0.01 nM; at CD137 [3] (co-culture with NCI-H292 (human), Table 1B), 0.28 ± 0.2 nM; at CD137 [3] (co-culture with NCI-H322 (human)), 0.33 ± 0.21 nM. The compound also showed an EC50 at CD137 [3] (co-culture with T47D (human)) of 0.42 ± 0.24 nM. Further, on CD137 [3] (FIG. 1A, Nectin-4 expressing H292 cells), the “CD137 activation in CD137 reporter assay” value is “induces strong CD137 activation”. In addition, the “Fold improvement in EC50 over BCY10000 on same plate” value on CD137 [3] (co-culture with NCI-H292) is reported as 4.56 fold. For the same compound, the “Fold improvement in Emax over BCY10000 on same plate” value on CD137 [3] (co-culture with NCI-H292) is given as 2.16 fold. Moreover, at CD137 [3] (co-culture with NCI-H292, Table 1A), the “Fold Induction over Background” value stood at 81 ± 29 fold.

The values are drawn from US20230129258A1, “HETEROTANDEM BICYCLIC PEPTIDE COMPLEXES” (BicycleTx Limited, priority 2019, published 2023).
